Source: patent US20200032271A1, “COMBINATION THERAPY WITH LIPOSOMAL ANTISENSE OLIGONUCLEOTIDES” (Bio-Path Holdings, Inc., priority 2016, published 2020)
Values joined by “and” are separate entries in the source; they are usually repeats but may differ in a detail not shown here. Equal entries are not always repeated. [PEt] = P-ethoxy (ethyl phosphotriester) internucleoside linkage

Experiments:
[1] = Single-dose toxicity study in mice; conditions: mouse
Experimental: Fifteen female ICR mice (5/group) were assigned to a non-injected control group (Group IV) and two treatment groups (Groups V and VI) to receive 20 and 40 mg oligo/kg, respectively, intravenously via the tail vein as a single injection. Animals were observed daily and blood was collected for hematology and clinical chemistry evaluations at two and six weeks post injection. Animals were sacrificed following blood collection at six weeks post-injection and tissues collected for gross and microscopic evaluations of organ toxicity.

[2] = tested on: HL60 (Ph-negative, Bcr-Abl negative); test: Inhibition of proliferation of leukemic cell lines by BP1001; format: cell-based, human; conditions: [BP1001] 0-12 μM, 5 days
From the text: (§1) BP1001 is a neutral liposome incorporated with the nuclease-resistant, hydrophobic P-ethoxy antisense oligos targeted to Grb2 mRNA. In preclinical studies, BP1001 was effective in inducing growth inhibition and decreasing ERK1,2 and Akt phosphorylation in imatinib-sensitive and imatinib-resistant CML cell lines.

K562 = test: as above; format: cell-based, human; conditions: 4 days
From the text: as §1

BV173 = test: as above; format: cell-based, human; conditions: 5 days
From the text: as §1

ALL-1 = test: as above; format: cell-based, human; conditions: 5 days
From the text: as §1

[3] = in vivo
From the text: Each participant who receives study drug will be closely monitored for AEs. An AE is any untoward medical occurrence associated with the use of a drug in humans, whether or not considered drug related. Adverse events include any signs, symptoms, illnesses, or diagnoses that appear or worsen during the course of the study. An AE may be an intercurrent illness, an injury, or any concomitant impairment of the participant's health. All AEs occurring at any time from the time of consent through the end of treatment visit will be reported regardless of the etiology of the event. The NCI's CTCAE v4.03 will be used for grading AEs.
The causal relationship to BP1001 IP or Das for all AEs will be assessed as follows: (1) definitely related—AEs clearly attributable to study regimen administration; (2) probably related—AEs for which there is a reasonable possibility of causal association to study regimen; (3) possibly related—AEs for which there is confounding by comorbidities, medications or other considerations but for which it is not unreasonable that the AE may have been caused by study regimen; or (4) not related—AEs that are considered clearly not causally related to study regimen, or for which there is a clear alternative explanation

[4] = Phase I study: dose-limiting toxicity and maximum tolerated dose; format: in vivo, human
Experimental: A BP1001 phase I study was conducted in two parts: (A) BP1001 dose escalation and (B) BP1001 with concurrent low-dose cytarabine (LDAC) dose expansion. For dose escalation (Part A), a standard “3+3” design was used in which successive cohorts of 3 or more patients with hematologic malignancies were treated at escalating doses from 5 to 135 mg/m^2 of BP1001 until a maximum tolerated dose (MTD) was identified. For the dose expansion portion of the study (Part B), two successive subsets of patients with AML were treated with BP1001 at the MTD (or highest tested dose [HTD]) and one level below the MTD (or HTD) in combination with a fixed dose of LDAC to further characterize safety and biological effect, as well as identify the recommended phase 2 dose. Both parts of the study employed an open-label, sequential, dose-escalation design to assess safety, tolerability and toxicity, pharmacokinetics (PK), tumor response, and anti-leukemic activity. A total of 39 patients were treated in the study: AML (n=30), CML-BP (n=5), and MDS (n=4). Of 39 patients, 27 were evaluable; 12 failed completion of a full cycle due to disease progression and were replaced per protocol. Only one patient on 5 mg/m^2 experienced a dose-limiting toxicity (DLT), grade 3 mucositis and hand-foot syndrome, while on high-dose hydroxyurea for proliferative CML-BP. The study medication could not be ruled out as a contributing factor, so this event was reported as a DLT. Upon expansion to six patients, no other patient developed a DLT. No other drug related toxicity has been observed in any of the patients treated. […] The HTD for BP1001 is 90 mg/m^2.
The study was designed as a standard 3+3 dose escalation trial for the assessment of safety, pharmacokinetics and efficacy of BP1001 in adult patients diagnosed with refractory/relapsed Philadelphia chromosome positive CML or ALL, AML, or MDS. Cohorts of three patients were enrolled at each dose level. The initial dose of BP1001 was 5 mg/m^2 (Cohort 1). If one patient developed a grade 3 or higher toxicity, three more patients were accrued at that dose level. […]

[5] = Multiple-dose toxicity study in mice; conditions: mouse
Grb2 = test: Flow cytometry of Grb2 levels in circulating leukemia cells of patients; format: in vivo, human; conditions: for Grb2 decrease (%) (Day 15) / Grb2 decrease (%) (Day 22 or end-of-treatment): individual subjects
From the text: Flow cytometry was used to determine the levels of Grb2 and pErk proteins in the circulating leukemia cells of patients who were on BP1001 single agent therapy, and were reported as median fluorescent intensity (MFI). MFI of Grb2 and pErk during treatment were compared to those at baseline.
Peripheral blood was collected from patients in cohorts 3, 4, 5, and 6, before being dosed on Cycle 1 days 1, 8, 15 and 22, and Cycle 2 day 1. White blood cells were isolated from peripheral blood using BD Vacutainer CPT cell preparation tubes with sodium heparin (BD Dickinson), fixed and stored in −80° C. freezer. Flow cytometry was utilized to determine Grb2 and phosphorylated Erk1,2 (pErk) levels in CD33-expressing cells using a validated method (Flow Contract Site Laboratory, Bothell, Wash., USA).
Flow cytometry was utilized to determine the levels of Grb2 and pErk proteins in the circulating leukemia cells of patients who were on BP1001 single agent therapy, and were reported as median fluorescent intensity (MFI). MFI of Grb2 and pErk during treatment were compared to those at baseline (Table 7).

CHO cells = test: In vitro mammalian chromosome aberration test; format: cell-based; conditions: non-activated and S9-activated
Experimental: BP1001 was tested in the chromosome aberration assay using CHO cells in both the absence and presence of an Aroclor-induced S9 activation system. A preliminary toxicity test was performed to establish the dose range for the chromosome aberration assay. The chromosome aberration assay was used to evaluate the clastogenic potential of the BP1001. Based on the findings of this study, BP1001 was concluded to be negative for the induction of structural and numerical chromosome aberrations in CHO cells in both the non-activated and the S9-activated test systems.

[6] = 15 and 25 mg oligo/kg i.v. daily for five days

Q: With “BP1001: liposome-incorporated P-ethoxy antisense oligodeoxynucleotide (5′-ATATTTGGCGATGGCTTC-3′, SEQ ID NO: 1) specific to grb2 mRNA, in neutral DOPC liposomes (DNA, all [PEt], methylation of C not given here; incorporated in neutral DOPC liposomes)” as the substance, how does the “WBC counts at six weeks post-injection” value ([1]; single i.v. 30 mg oligo/kg) read?
A: Its value is “Recovery”.

Q: What about the “group average WBC count at six weeks” value ([1]; single i.v. 40 mg oligo/kg, not statistically different than control) of the same substance?
A: Its value is “not fully recovered”.

Q: And the morbidity or mortality ([1]; single i.v. 15-40 mg oligo/kg, six weeks observation)?
A: Its morbidity or mortality is “No signs of morbidity or mortality”.

Q: And the “drug-related lesions in examined organs” value ([1]; single i.v. 15-40 mg/kg)?
A: The value was “no drug-related lesions”.

Q: What about the “WBC count at two weeks post-injection” value ([1]; single i.v. 30 and 40 mg oligo/kg) of the same substance?
A: Its value is “Reduction”.

Q: What about the Decrease in viability [2] of the same substance?
A: The Decrease in viability was 0%.

Q: What about the IC50 (K562) of the same substance?
A: Its IC50 is 8 µM.

Q: And the Decrease in viability (K562; [BP1001] 0-12 μM)?
A: The Decrease in viability was 80%.

Q: And the IC50 (BV173)?
A: The IC50 was 8 µM.

Q: And the Decrease in viability (BV173; [BP1001] 0-10 μM)?
A: Its Decrease in viability is 70%.

Q: And the IC50 (ALL-1)?
A: The IC50 was 4 µM.

Q: And the Decrease in viability (ALL-1; [BP1001] 0-6 μM)?
A: Its Decrease in viability is 100%.

Q: What about the “Infections and infestations ≥Grade 3, total events” value [3] of the same substance?
A: The value was “(9/9)”.

Q: What about the “Infections and infestations ≥Grade 3, total patients” value [3] of the same substance?
A: Its value is “(9/9)”.

Q: And the “patients with dose-limiting toxicity (grade 3 mucositis and hand-foot syndrome)” value ([4]; 5 mg/m^2, patient on high-dose hydroxyurea for CML-BP, no other DLT after expansion to six)?
A: The value was “one”.

Q: And the “highest tested dose (HTD)” value ([4]; patients)?
A: The value was 90 mg/m^2.

Q: And the “maximum tolerated dose (MTD)” value ([4]; patients, 5 to 90 mg/m^2 i.v. twice weekly)?
A: Its value is “not identified”.

Q: And the “WBC counts at two weeks post-injection, persisting at six weeks” value [5, 6]?
A: Its value is “Reduction”.

Q: What about the morbidity or mortality [5, 6] of the same substance?
A: The morbidity or mortality was “No signs of morbidity or mortality”.

Q: And the “drug-related lesions in examined organs” value ([5]; multiple i.v. 15-25 mg/kg)?
A: The value was “no drug-related lesions”.

Q: What about the “Grb2 decrease (%) (Day 15)” value (Grb2; cohort 3, 20 mg/m^2) of the same substance?
A: Its value is 0% (2×) and 56%.

Q: What about the “Grb2 decrease (%) (Day 22 or end-of-treatment)” value (Grb2; cohort 3, 20 mg/m^2) of the same substance?
A: Its value is 28% and 47% and 57%.

Q: And the “Grb2 decrease (%) (Day 15)” value (Grb2; cohort 4, 40 mg/m^2)?
A: The value was 63% and 47%.

Q: And the “Grb2 decrease (%) (Day 22 or end-of-treatment)” value (Grb2; cohort 4, 40 mg/m^2)?
A: The value was 54% and 0% and 34%.

Q: And the “Grb2 decrease (%) (Day 15)” value (Grb2; cohort 5, 60 mg/m^2)?
A: The value was 0% and 57% and 54%.

Q: And the “Grb2 decrease (%) (Day 22 or end-of-treatment)” value (Grb2; cohort 5, 60 mg/m^2)?
A: Its value is 30% and 65% and 43%.

Q: And the “Grb2 decrease (%) (Day 15)” value (Grb2; cohort 6, 90 mg/m^2)?
A: The value was 0% and 85% and 63%.

Q: And the “Grb2 decrease (%) (Day 22 or end-of-treatment)” value (Grb2; cohort 6, 90 mg/m^2)?
A: Its value is 0% and 91% and 40%.

Q: What about the “average decrease in Grb2 levels” value (Grb2; last measured sample) of the same substance?
A: The value was 49%.

Q: What about the “samples with ≥25% decrease of Grb2 levels” value (Grb2; last measured sample (end of treatment or cycle 1 day 22), MFI vs baseline) of the same substance?
A: Its value is 10 out of 12.

Q: And the “induction of structural and numerical chromosome aberrations” value (CHO cells)?
A: Its value is “negative”.
